Assay results reported in patent US12391680B2, “Compounds and compositions for the treatment of cystic fibrosis” (FONDAZIONE ISTITUTO ITALIANO DI TECNOLOGIA, priority 2019, dated 2025).

Target: mutant CFTR (Homo sapiens, UniProt P13569)
Experiment: Fluorescence assay for CFTR activity (halide-sensitive YFP, HS-YFP)
Assay type: cell-based
Conditions: CFBE41o- and FRT cells with stable expression of mutant CFTR
Protocol: Mutant CFTR activity was determined with the functional assay based on the halide-sensitive yellow fluorescent protein, HS—YFP (Galietta et al., FEBS Lett 499:220-224, 2001). CFBE41o- and FRT cells with stable expression of mutant CFTR and HS—YFP were plated on clear-bottom 96-well black microplates (Code 3603, Corning Life Sciences) at a density of 50,000 cells/well and kept at 37° C. in 5% CO2 for 24 hours.
For the corrector assay, cells were treated for further 24 hours with test compounds, vehicle (DMSO), or the positive control VX-809. After treatment, the culture medium was removed and cells in each well were stimulated for 30 min at 37° C. with 60 μL PBS (containing 137 mM NaCl, 2.7 mM KCl, 8.1 mM Na2HPO4, 1.5 mM KH2PO4, 1 mM CaCl2, and 0.5 mM MgCl2) plus forskolin (20 μM) and genistein (50 μM).
For determination of potentiator activity on F508del-CFTR, cells were incubated for 24 hours at 27° C. to allow trafficking of the mutant protein to plasma membrane. Cells were then stimulated with for 30 min with PBS containing forskolin (20 μM) plus the compound to be tested at the desired concentration. For determination of potentiator activity on G551D-CFTR or G1349D-CFTR, cells were directly stimulated with forskolin plus test compound without previous incubation at low temperature. At the time of assay, microplates carrying CFBE41o- or FRT cells were transferred to microplate readers (BMG Labtech) equipped with high-quality excitation (HQ500/20×: 500±10 nm) and emission (HQ535/30M: 535±15 nm) filters for YFP (Chroma Technology). The assay consisted of a continuous 14 s fluorescence reading with 2 s before and 12 s after injection of an iodide-containing solution (165 μL of a modified PBS containing I^− instead of Cl^−; final I^− concentration in the well: 100 mM). Data were normalized to the initial background-subtracted fluorescence. Enhanced CFTR activity, induced by correctors and/or potentiators, results in accelerated I^− influx that in turn causes faster HS—YFP quenching (Pedemonte et al., Mol Pharmacol 68:1736-1746, 2005; Pedemonte et al., J Clin Invest 115:2564-2571, […]). To determine fluorescence quenching rate associated with I^− influx, the final 10 s of data for each well were fitted with an exponential function to extrapolate initial slope (dF/dt).
EC50 obtained are illustrated in Table 1 wherein+: EC50>2 μM; ++: 1.0 μM <EC50<2 μM; +++: EC50<1 μM.

Sequence of mutant CFTR (P13569 with tags, fused parts or gaps DEL508-508): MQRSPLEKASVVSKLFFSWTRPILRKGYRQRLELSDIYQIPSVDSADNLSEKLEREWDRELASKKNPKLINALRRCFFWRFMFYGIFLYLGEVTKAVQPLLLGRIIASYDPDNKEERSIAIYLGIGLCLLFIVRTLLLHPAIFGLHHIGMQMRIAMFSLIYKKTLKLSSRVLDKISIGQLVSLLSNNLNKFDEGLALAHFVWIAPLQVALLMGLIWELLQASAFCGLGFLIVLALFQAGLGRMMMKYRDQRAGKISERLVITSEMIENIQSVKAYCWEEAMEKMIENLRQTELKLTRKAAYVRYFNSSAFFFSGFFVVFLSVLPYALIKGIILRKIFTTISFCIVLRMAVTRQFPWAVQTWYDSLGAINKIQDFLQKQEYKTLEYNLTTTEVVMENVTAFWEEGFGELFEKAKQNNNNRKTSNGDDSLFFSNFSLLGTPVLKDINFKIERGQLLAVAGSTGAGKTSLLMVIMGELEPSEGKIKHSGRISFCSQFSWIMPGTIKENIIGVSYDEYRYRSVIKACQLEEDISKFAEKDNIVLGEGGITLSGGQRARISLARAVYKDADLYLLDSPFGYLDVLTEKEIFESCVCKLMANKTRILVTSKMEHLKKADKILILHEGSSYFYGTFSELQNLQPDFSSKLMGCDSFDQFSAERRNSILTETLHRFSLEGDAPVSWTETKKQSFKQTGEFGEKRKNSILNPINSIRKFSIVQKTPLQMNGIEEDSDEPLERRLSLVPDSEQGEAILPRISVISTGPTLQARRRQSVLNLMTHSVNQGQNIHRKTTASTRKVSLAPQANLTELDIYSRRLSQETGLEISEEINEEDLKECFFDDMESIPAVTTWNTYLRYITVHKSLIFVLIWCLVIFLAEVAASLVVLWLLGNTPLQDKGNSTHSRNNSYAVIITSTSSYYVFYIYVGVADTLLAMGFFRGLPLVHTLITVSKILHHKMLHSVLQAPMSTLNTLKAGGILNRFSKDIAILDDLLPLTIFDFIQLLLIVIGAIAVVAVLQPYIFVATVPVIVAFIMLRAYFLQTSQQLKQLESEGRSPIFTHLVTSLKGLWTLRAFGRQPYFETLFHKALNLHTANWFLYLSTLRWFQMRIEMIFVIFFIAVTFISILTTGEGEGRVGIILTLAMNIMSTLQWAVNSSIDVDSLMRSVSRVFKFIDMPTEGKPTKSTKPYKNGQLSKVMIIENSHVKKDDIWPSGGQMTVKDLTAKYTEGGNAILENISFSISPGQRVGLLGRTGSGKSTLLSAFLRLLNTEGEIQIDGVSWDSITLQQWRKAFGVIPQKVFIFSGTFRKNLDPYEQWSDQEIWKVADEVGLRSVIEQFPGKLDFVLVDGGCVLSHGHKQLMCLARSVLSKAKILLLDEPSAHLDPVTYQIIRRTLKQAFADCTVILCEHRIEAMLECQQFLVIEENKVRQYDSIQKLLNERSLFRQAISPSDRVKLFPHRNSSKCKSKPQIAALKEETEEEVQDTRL

Row | SMILES | EC50 [nM]
1 | Cc1nc(S(=O)(=O)N2CCOC(c3c(C(N)=O)sc4ccccc34)C2)cn1C (racemic) [compound 002, rac-3-[4-(1,2-dimethylimidazol-4-yl)sulfonylmorpholin-2-yl]benzothiophene-2-carboxamide] | > 2000
2 | NC(=O)c1sc2ccccc2c1C1CN(S(=O)(=O)c2c[nH]cn2)CCO1 (racemic) [compound 004, rac-3-[4-(1H-imidazol-4-ylsulfonyl)morpholin-2-yl]benzothiophene-2-carboxamide] | > 2000
3 | NC(=O)c1sc2ccccc2c1C1CN(S(=O)(=O)c2ccsc2)CCO1 (racemic) [compound 005, rac-3-[4-(3-thienylsulfonyl)morpholin-2-yl]benzothiophene-2-carboxamide] | > 2000
4 | COC(=O)c1cccc(S(=O)(=O)N2CCOC(c3c(C(N)=O)sc4ccccc34)C2)c1 (racemic) [compound 007, rac-methyl 3-[2-(2-carbamoylbenzothiophen-3-yl)morpholin-4-yl]sulfonylbenzoate] | > 2000
5 | Cc1noc(C)c1S(=O)(=O)N1CCOC(c2c(C(N)=O)sc3ccccc23)C1 (racemic) [compound 008, rac-3-[4-(3,5-dimethylisoxazol-4-yl)sulfonylmorpholin-2-yl]benzothiophene-2-carboxamide] | > 2000
6 | NC(=O)c1sc2ccccc2c1C1CN(S(=O)(=O)c2cccc(Br)c2)CCO1 (racemic) [compound 009, rac-3-[4-(3-bromophenyl)sulfonylmorpholin-2-yl]benzothiophene-2-carboxamide] | > 2000
7 | NC(=O)c1sc2ccccc2c1C1CN(S(=O)(=O)C2CCCCC2)CCO1 (racemic) [compound 016, rac-3-[4-cyclohexylsulfonylmorpholin-2-yl]benzothiophene-2-carboxamide] | > 2000
8 | NC(=O)c1sc2ccccc2c1C1CN(S(=O)(=O)c2ccc3c(c2)OCO3)CCO1 (racemic) [compound 017, rac-3-[4-(1,3-benzodioxol-5-ylsulfonyl)morpholin-2-yl]benzothiophene-2-carboxamide] | 1000 to 2000
9 | Cc1cc(S(=O)(=O)N2CCOC(c3c(C(=O)N(C)C)sc4ccccc34)C2)ccc1F (racemic) [compound 025, rac-3-[4-(4-fluoro-3-methyl-phenyl)sulfonylmorpholin-2-yl]-N,N-dimethyl-benzothiophene-2-carboxamide] | > 2000
10 | Cc1ccc(F)cc1S(=O)(=O)N1CCOC(c2c(C(N)=O)sc3ccccc23)C1 (racemic) [compound 027, rac-3-[4-(5-fluoro-2-methyl-phenyl)sulfonylmorpholin-2-yl]benzothiophene-2-carboxamide] | > 2000
11 | CNC(=O)c1sc2ccccc2c1C1CN(S(=O)(=O)c2ccc(F)c(C)c2)CCO1 (racemic) [compound 028, rac-3-[4-(4-fluoro-3-methyl-phenyl)sulfonylmorpholin-2-yl]-N-methyl-benzothiophene-2-carboxamide] | > 2000
12 | Cc1cc(S(=O)(=O)N2CCOC(c3c(C(=O)NCCO)sc4ccccc34)C2)ccc1F (racemic) [compound 029, rac-3-[4-(4-fluoro-3-methyl-phenyl)sulfonylmorpholin-2-yl]-N-(2-hydroxyethyl)benzothiophene-2-carboxamide] | > 2000
13 | CCNC(=O)c1sc2ccccc2c1C1CN(S(=O)(=O)c2ccc(F)c(C)c2)CCO1 (racemic) [compound 030, rac-N-ethyl-3-[4-(4-fluoro-3-methyl-phenyl)sulfonylmorpholin-2-yl]benzothiophene-2-carboxamide] | > 2000
14 | Cc1cc(S(=O)(=O)N2CCOC(c3c(C(=O)NC(C)C)sc4ccccc34)C2)ccc1F (racemic) [compound 031, rac-3-[4-(4-fluoro-3-methyl-phenyl)sulfonylmorpholin-2-yl]-N-isopropyl-benzothiophene-2-carboxamide] | > 2000
15 | Cc1cc(C)c(S(=O)(=O)N2CCOC(c3c(C(N)=O)sc4ccccc34)C2)c(C)c1 (racemic) [compound 032, rac-3-[4-(2,4,6-trimethylphenyl)sulfonylmorpholin-2-yl]benzothiophene-2-carboxamide] | > 2000
16 | NC(=O)c1sc2ccccc2c1C1CN(S(=O)(=O)c2cccc(C(F)(F)F)c2)CCO1 (racemic) [compound 035, rac-3-[4-[3-(trifluoromethyl)phenyl]sulfonylmorpholin-2-yl]benzothiophene-2-carboxamide] | < 1000

Other lines, results leading:

Row | EC50 [nM] | SMILES
17 | > 2000 | NC(=O)c1sc2ccccc2c1C1CN(S(=O)(=O)c2ccccc2)CCO1 (racemic) [compound 003, rac-3-[4-(benzenesulfonyl)morpholin-2-yl]benzothiophene-2-carboxamide]
18 | < 1000 | NC(=O)c1sc2ccccc2c1C1CN(S(=O)(=O)c2ccc(Oc3ccccc3)cc2)CCO1 (racemic) [compound 006, rac-3-[4-(4-phenoxyphenyl)sulfonylmorpholin-2-yl]benzothiophene-2-carboxamide]
19 | 1000 to 2000 | COc1ccc(S(=O)(=O)N2CCOC(c3c(C(N)=O)sc4ccccc34)C2)cc1 (racemic) [compound 010, rac-3-[4-(4-methoxyphenyl)sulfonylmorpholin-2-yl]benzothiophene-2-carboxamide]
20 | 1000 to 2000 | Cc1cccc(S(=O)(=O)N2CCOC(c3c(C(N)=O)sc4ccccc34)C2)c1 (racemic) [compound 012, rac-3-[4-(m-tolylsulfonyl)morpholin-2-yl]benzothiophene-2-carboxamide]
21 | > 2000 | NC(=O)c1sc2ccccc2c1C1CN(S(=O)(=O)c2ccc(N3CCCC3=O)cc2)CCO1 (racemic) [compound 015, rac-3-[4-[4-(2-oxopyrrolidin-1-yl)phenyl]sulfonylmorpholin-2-yl]benzothiophene-2-carboxamide]
22 | > 2000 | COc1ccc(Oc2ccc(S(=O)(=O)N3CCOC(c4c(C(N)=O)sc5ccccc45)C3)cc2)cc1 (racemic) [compound 019, rac-3-[4-[4-(4-methoxyphenoxy)phenyl]sulfonylmorpholin-2-yl]benzothiophene-2-carboxamide]
23 | 1000 to 2000 | NC(=O)c1sc2ccccc2c1C1CN(S(=O)(=O)c2cccc(F)c2)CCO1 (racemic) [compound 020, rac-3-[4-(3-fluorophenyl)sulfonylmorpholin-2-yl]benzothiophene-2-carboxamide]
24 | > 2000 | NC(=O)c1sc2ccccc2c1C1CN(S(=O)(=O)c2ccc(F)c(F)c2)CCO1 (racemic) [compound 021, rac-3-[4-(3,4-difluorophenyl)sulfonylmorpholin-2-yl]benzothiophene-2-carboxamide]
25 | > 2000 | NC(=O)c1sc2ccccc2c1C1CN(S(=O)(=O)c2ccc(F)cc2)CCO1 (racemic) [compound 022, rac-3-[4-(4-fluorophenyl)sulfonylmorpholin-2-yl]benzothiophene-2-carboxamide]
26 | > 2000 | COc1ccc(S(=O)(=O)N2CCOC(c3c(C(N)=O)sc4ccccc34)C2)cc1C (racemic) [compound 023, rac-3-[4-(4-methoxy-3-methyl-phenyl)sulfonylmorpholin-2-yl]benzothiophene-2-carboxamide]
27 | > 2000 | NC(=O)c1sc2ccccc2c1C1CN(S(=O)(=O)c2ccc(Oc3ccncc3)cc2)CCO1 (racemic) [compound 024, rac-3-[4-[4-(4-pyridyloxy)phenyl]sulfonylmorpholin-2-yl]benzothiophene-2-carboxamide]
28 | < 1000 | Cc1ccc(S(=O)(=O)N2CCOC(c3c(C(N)=O)sc4ccccc34)C2)cc1F (racemic) [compound 026, rac-3-[4-(3-fluoro-4-methyl-phenyl)sulfonylmorpholin-2-yl]benzothiophene-2-carboxamide]
29 | < 1000 | Cc1ccc(S(=O)(=O)N2CCOC(c3c(C(N)=O)sc4ccccc34)C2)cc1 (racemic) [compound 033, rac-3-[4-(p-tolylsulfonyl)morpholin-2-yl]benzothiophene-2-carboxamide]
30 | < 1000 | CC(C)(C)c1ccc(S(=O)(=O)N2CCOC(c3c(C(N)=O)sc4ccccc34)C2)cc1 (racemic) [compound 036, rac-3-[4-(4-tert-butylphenyl)sulfonylmorpholin-2-yl]benzothiophene-2-carboxamide]
31 | > 2000 | N#Cc1ccc(S(=O)(=O)N2CCOC(c3c(C(N)=O)sc4ccccc34)C2)cc1 (racemic) [compound 037, rac-3-[4-(4-cyanophenyl)sulfonylmorpholin-2-yl]benzothiophene-2-carboxamide]
